{
  "source": "patent US20240109877A1",
  "about": "“PYRIMIDINES FOR DEGRADING BRUTON'S TYROSINE KINASE” (AbbVie Inc., priority 2022, published 2024)",
  "key": {"[1]": {"biological_target": "Human BTK enzyme, wild-type (Homo sapiens (Human), UniProt Q06187)", "sequence (Q06187 whole entry)": "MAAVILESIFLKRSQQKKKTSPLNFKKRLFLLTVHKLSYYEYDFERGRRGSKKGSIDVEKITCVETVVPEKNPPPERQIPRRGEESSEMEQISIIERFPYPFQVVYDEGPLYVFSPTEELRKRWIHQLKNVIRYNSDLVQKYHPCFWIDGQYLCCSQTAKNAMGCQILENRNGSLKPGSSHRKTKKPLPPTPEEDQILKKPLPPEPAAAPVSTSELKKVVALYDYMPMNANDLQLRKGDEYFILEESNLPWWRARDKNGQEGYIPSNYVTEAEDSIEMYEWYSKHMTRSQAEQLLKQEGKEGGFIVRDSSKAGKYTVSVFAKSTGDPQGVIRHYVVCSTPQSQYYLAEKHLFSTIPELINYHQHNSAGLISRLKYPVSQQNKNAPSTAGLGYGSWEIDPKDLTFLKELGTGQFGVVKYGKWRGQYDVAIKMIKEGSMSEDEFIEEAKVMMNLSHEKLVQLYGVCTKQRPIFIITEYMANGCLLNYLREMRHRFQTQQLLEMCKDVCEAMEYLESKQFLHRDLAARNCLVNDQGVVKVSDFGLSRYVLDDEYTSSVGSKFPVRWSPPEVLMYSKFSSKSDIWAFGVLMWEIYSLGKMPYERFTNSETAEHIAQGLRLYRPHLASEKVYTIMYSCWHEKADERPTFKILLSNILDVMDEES", "assay": "BTK Screening: Btk kinase activity, electrophoretic mobility shift assay (MSA)", "format": "biochemical", "details": "0.5 nM BTK enzyme, 50 μM ATP, 15 minutes pre-incubation, 3 hours at 25° C.", "method": "Btk kinase activity was measured in vitro using an electrophoretic mobility shift assay (MSA). The ability of Btk to phosphorylate a fluorescent peptide substrate (FAM-GEEPLYWSFPAKKK-NH2) was measured. The kinase reactions were assembled in a total volume of 25 μL per well in 384 well plates. The following was added to each well: compound buffer (or control); enzyme buffer; and substrate buffer, as further described below.\nSpecifically the following was added: (1) compound buffer or control: 5μL of 5× compound buffer [(5× compound buffer comprised of: 1× Master Buffer, X μM test compound in 5% dimethyl sulfoxide; (2× Master Buffer comprised of 200 mM HEPES, pH7.5, 0.2% BSA, and 0.02% Triton X-100)]; and (2) enzyme buffer: 10 μL of 2.5× enzyme buffer (1× Master Buffer, 12.5 mM MgCl2, 2.5 mM DTT, 25 μM sodium orthovanadate, 25 μM beta-glycerophosphate, and 1.25 nM BTK enzyme). Human BTK enzyme Nanosyn-293HEK, wild-type, available from Nanosyn, Santa Clara, CA). Enzyme and compound were pre-incubated for 15 minutes. Additionally, the following was added: (3) substrate buffer: 10 μL of 2.5× substrate buffer (1× Master Buffer, […], and 2.5 μM of the peptide substrate FAM). Each plate was incubated at 25° C. for 3 hours. The reaction was terminated by adding to each well: 45 μL of 1.55× stop buffer (1× Master Buffer and 31 mM EDTA). The final reaction mixture was as follows: 100 mM HEPES, pH7.5; 0.1% BSA; 0.01% Triton X-100; 1 mM DTT; 5 mM MgCl2; 10 μM sodium orthovanadate; 10 μM beta-glycerophosphate; 50 μM ATP; 1% dimethyl sulfoxide (from compound); 1μM fluorescent peptide substrate and 0.5 nM BTK- enzyme. The terminated reactions were analyzed using a 12 channel LABCHIP® 3000 microfluidic detection instrument (available from Caliper Life Sciences, Waltham, MA). […] As substrate and product peptides were separated, two peaks of fluorescence were observed. Change in the relative fluorescence intensity of the substrate and product peaks was the parameter measured, reflecting enzyme activity. In the presence of an active compound, the ratio between product and substrate was altered. The signal of the product decreased, while the signal of the substrate increased. Capillary electrophoregrams (RDA acquisition files) were analyzed using HTS Well Analyzer software (available from Caliper Life Sciences, Waltham, MA).\nActivity in each sample was determined as the product to sum ratio (PSR): P/(S+P), where P was the peak height of the product peptide and S was the peak height of the substrate peptide. For each compound, enzyme activity was measured at various concentrations (12 concentrations of compound spaced by 3× dilution intervals). Negative control samples (0% inhibition in the absence of an active compound) and positive control samples (100% inhibition, in the presence of 20 mM EDTA) were assembled in replicates of four and were used to calculate % inhibition values for each active compound at each concentration. Percent inhibition (Pinh) was determined using following equation: Pinh=(PSR0%−PSRinh)/(PSR0%−PSR100%)*100, where PSRinh was the product sum ratio in the presence of inhibitor, PSR0% was the average product sum ratio in the absence of active compound and PSR100% was the average product sum ratio in 100%-inhibition control samples.\nThe IC50 values of active compounds were determined by 4 parameter sigmoidal dose response model fitting of the inhibition curves (Pinh versus inhibitor concentration) using XLfit® 4 software (IDBS, Boston, MA). The IC50 values are reported in Table 2 in the BTK IC50 (nM) column."}, "[2]": {"tested_on": "TCL1-driven CLL bearing BTK^C481S mutation", "assay": "TCL1-driven CLL bearing BTK C481S mutation in C57BL/6 mice, circulating leukemia burden", "format": "in vivo, mouse", "details": "once daily (QD) for 19 days", "description": "EIA-TCL1 CLL transgenic mice (Crogen Pharmaceuticals LLC) were crossed with BTK^C481S knock-in mice (AbbVie) to generate Eμ-TCL1 transgenic mice carrying the BTK^C481S mutation. The leukemic splenocytes from these BTK^C481S Eμ-TCL1 transgenic mice (Passage 1) were transplanted intravenously into C57BL/6 mice, leading to CLL development in the peripheral blood and spleen. When circulating CLL burden (CD5+CD19+ cells as described below) in the recipient mice reached over 90%, their splenocytes (Passage 2) containing high CLL burden were cryopreserved and used for CLL efficacy studies. […]\nTo determine the absolute/total leukocyte numbers, complete blood counts were determined for each mouse using the Genesis™ veterinary hematology analyzer (Oxford Science Inc.).\nCells isolated from murine peripheral blood mononuclear cells (PMBCs) were collected to determine antigen expression. […] Cells were gated on CD45+, and thereafter the percentage of cells that were CD5+CD19+ from that subset was calculated. […]\nWhole blood was collected weekly post tumor implantation via submandibular cheek bleeding. Circulating leukemic burden was calculated by multiplying absolute/total leukocyte count with the percentage of the leukocytes have the immunophenotype CD19^+CD5^+. […]"}},
  "data": [
    {"smiles": "Cc1cc(-c2cc(Nc3ccc(N4CCN(CCc5ccc(N6CCC(=O)NC6=O)cc5)C[C@@H]4C)cn3)ncn2)ccc1[C@@H](C)NC(=O)c1nc(C(C)(C)C)no1", "note": "[Example 1, 3-tert-butyl-N-[(1R)-1-{4-[6-({5-[(2S)-4-{2-[4-(2,4-dioxo-1,3-diazinan-1-yl)phenyl]ethyl}-2-methylpiperazin-1-yl]pyridin-2-yl}amino)pyrimidin-4-yl]-2-methylphenyl}ethyl]-1,2,4-oxadiazole-5-carboxamide]", "values": [
      {"measurement": "IC50", "setting": "[1]", "result": 97.7, "unit": "pM"},
      {"measurement": "circulating leukemia burden (CD19+CD5+ CLL cells per μL)", "setting": "[2]; Dosage 1-4, dose-dependent manner, FIG. 1", "result": "controlled circulating leukemia burden"},
      {"measurement": "CLL burden control (no increase from the initial tumor burden)", "setting": "[2]; at Dosage 3 and Dosage 4", "result": "Complete CLL burden control"}
    ]}
  ]
}
